Reference: article PMC7318034, “Safety, Pharmacokinetics, and Drug-Drug Interaction Potential of Intravenous Durlobactam, a β-Lactamase Inhibitor, in Healthy Subjects” (Antimicrobial Agents and Chemotherapy, 2020)
Like-named read-outs stand apart in the source and are kept apart here.

What was measured:
[1] = Part A single-ascending-dose plasma PK in healthy subjects; type: in vivo, human; conditions: for half-life / AUC(0-inf) / Cmax / clearance / Tmax / AUC(0-t) / Vd: human, plasma; for Tmax: median; for Vd: read-out: Vss
Description: This was a 4-part, double-blind, placebo-controlled study (15 cohorts) of DUR administered as a 3-h i.v. infusion (except for cohort 4, in which a 2-h i.v. infusion was evaluated) (see Table S5 in the supplemental material).
The blank control matrix was made up of human plasma (BioreclamationIVT) diluted 1:1 with SigmaFast (reconstituted protease inhibitor cocktail tablet [product S8820; Sigma-Aldrich, St. Louis, MO] in 10 ml of water) for preparation of calibration standards and QC samples. […] A 100-μl aliquot of the supernatant was transferred to 96-well plates. Samples were diluted further with 400 μl of water, and 5 μl of sample was injected into the LC-MS/MS system for analysis. […] The LLOQ for all analytes was 5 ng/ml.
AUC was calculated using the log-linear trapezoidal rule.
Pharmacokinetic parameters were summarized at each assessment time point using the mean ± standard deviation (SD), the percent coefficient of variation (CV), median, minimum, and maximum. Single-ascending-dose study data were assessed for dose proportionality using Cmax and AUC, and accumulation ratios was determined using repeat-dose cohorts. […] Noncompartmental analysis of PK parameters was performed using Phoenix WinNonlin (v6.4) software to determine PK parameters.

[2] = Urine PK (urinary excretion, renal clearance) in healthy subjects; conditions: human, urine, intravenous, CLr
[3] = cohort of elderly subjects, DUR 1 g
[4] = iv, 0.25 g, part A cohort 1, single 0.25 g, 3-h i.v. infusion
[5] = iv, 0.5 g, part A cohort 2, single 0.5 g, 3-h i.v. infusion
[6] = iv, 1 g, part A cohort 3, single 1.0 g, 3-h i.v. infusion
[7] = iv, 1 g, part A cohort 4, single 1.0 g, 2-h i.v. infusion
[8] = iv, 1 g, part A cohort 8 (elderly subjects >65 years), single 1.0 g, 3-h i.v. infusion
[9] = iv, 2 g, part A cohort 5, single 2.0 g, 3-h i.v. infusion
[10] = iv, 4 g, part A cohort 6, single 4.0 g, 3-h i.v. infusion
[11] = iv, 8 g, part A cohort 7, single 8.0 g, 3-h i.v. infusion

- increase in Cmax with 2-h infusion compared with 3-h infusion ([1]; cohort 4, DUR 1 g): approximately 50%
- increase in AUC in elderly subjects compared with younger subjects ([1]; cohort 8, DUR 1 g): 2 fold
- increase in Cmax in elderly subjects compared with younger subjects ([1]; cohort 8, DUR 1 g): 1.8 fold
- increase in exposure in elderly subjects [1, 3]: 100%
- reduction of renal clearance in elderly subjects [1, 3]: approximately 50%
- reduction of volume of distribution (V) in elderly subjects [1, 3]: approximately 50%
- half-life ([1]; intravenous, range across single doses of 0.25 g to 8 g, read-out: mean half-life (t1/2)): 1.5 to 2.8 h
- AUC(0-inf) [1, 4]: 25.5 ± 3.7 µg·h/mL
- Cmax [1, 4]: 6900 ± 1000 ng/mL
- clearance [1, 4]: 167 mL/min
- half-life ([1]; iv, 0.25 g, part A cohort 1, single 0.25 g, 3-h i.v. infusion, mean ± SD, n=6, read-out: t1/2 (converted)): 1.5 ± 0.1 h
- Tmax [1, 4]: 3 h
- AUC(0-t) ([1]; iv, 0.25 g, part A cohort 1, single 0.25 g, 3-h i.v. infusion, read-out: AUC0–24): 25.5 ± 3.7 µg·h/mL
- AUC(0-t) ([1]; iv, 0.25 g, part A cohort 1, single 0.25 g, 3-h i.v. infusion, read-out: AUC0–t): 25.4 ± 3.7 µg·h/mL
- Vd [1, 4]: 16.6 ± 3.6 L
- AUC(0-inf) [1, 5]: 47.8 ± 7.6 µg·h/mL
- Cmax [1, 5]: 9900 ± 2000 ng/mL
- clearance [1, 5]: 178 mL/min
- half-life ([1]; iv, 0.5 g, part A cohort 2, single 0.5 g, 3-h i.v. infusion, mean ± SD, n=6, read-out: t1/2 (converted)): 2 ± 0.4 h
- Tmax [1, 5]: 3 h
- AUC(0-t) ([1]; iv, 0.5 g, part A cohort 2, single 0.5 g, 3-h i.v. infusion, read-out: AUC0–24): 47.7 ± 7.5 µg·h/mL
- AUC(0-t) ([1]; iv, 0.5 g, part A cohort 2, single 0.5 g, 3-h i.v. infusion, read-out: AUC0–t): 47.4 ± 7.7 µg·h/mL
- Vd [1, 5]: 25.8 ± 2.9 L
- AUC(0-inf) [1, 6]: 76.1 ± 10.5 µg·h/mL
- Cmax [1, 6]: 20700 ± 2800 ng/mL
- clearance [1, 6]: 223 mL/min
- half-life ([1]; iv, 1 g, part A cohort 3, single 1.0 g, 3-h i.v. infusion, mean ± SD, n=6, read-out: t1/2 (converted)): 2 ± 0.3 h
- Tmax [1, 6]: 3 h
- AUC(0-t) ([1]; iv, 1 g, part A cohort 3, single 1.0 g, 3-h i.v. infusion, read-out: AUC0–24): 76.1 ± 10.5 µg·h/mL
- AUC(0-t) ([1]; iv, 1 g, part A cohort 3, single 1.0 g, 3-h i.v. infusion, read-out: AUC0–t): 75.6 ± 10.4 µg·h/mL
- Vd [1, 6]: 25.7 ± 5 L
- AUC(0-inf) [1, 7]: 101 ± 28.9 µg·h/mL
- Cmax [1, 7]: 31300 ± 6900 ng/mL
- clearance [1, 7]: 177 mL/min
- half-life ([1]; iv, 1 g, part A cohort 4, single 1.0 g, 2-h i.v. infusion, mean ± SD, n=6, read-out: t1/2 (converted)): 2.2 ± 0.2 h
- Tmax [1, 7]: 2 h
- AUC(0-t) ([1]; iv, 1 g, part A cohort 4, single 1.0 g, 2-h i.v. infusion, read-out: AUC0–24): 101 ± 28.9 µg·h/mL
- AUC(0-t) ([1]; iv, 1 g, part A cohort 4, single 1.0 g, 2-h i.v. infusion, read-out: AUC0–t): 101 ± 29 µg·h/mL
- Vd [1, 7]: 22.7 ± 6.4 L
- AUC(0-inf) [1, 8]: 151 ± 14.1 µg·h/mL
- Cmax [1, 8]: 37800 ± 2500 ng/mL
- clearance [1, 8]: 112 mL/min
- half-life ([1]; iv, 1 g, part A cohort 8 (elderly subjects >65 years), single 1.0 g, 3-h i.v. infusion, mean ± SD, n=6, read-out: t1/2 (converted)): 2.4 ± 0.3 h
- Tmax [1, 8]: 3 h
- AUC(0-t) ([1]; iv, 1 g, part A cohort 8 (elderly subjects >65 years), single 1.0 g, 3-h i.v. infusion, read-out: AUC0–24): 151 ± 14 µg·h/mL
- AUC(0-t) ([1]; iv, 1 g, part A cohort 8 (elderly subjects >65 years), single 1.0 g, 3-h i.v. infusion, read-out: AUC0–t): 151 ± 14 µg·h/mL
- Vd [1, 8]: 14.5 ± 2 L
- AUC(0-inf) [1, 9]: 173 ± 25.6 µg·h/mL
- Cmax [1, 9]: 41500 ± 6400 ng/mL
- clearance [1, 9]: 197 mL/min
- half-life ([1]; iv, 2 g, part A cohort 5, single 2.0 g, 3-h i.v. infusion, mean ± SD, n=6, read-out: t1/2 (converted)): 2.2 ± 0.2 h
- Tmax [1, 9]: 2.5 h
- AUC(0-t) ([1]; iv, 2 g, part A cohort 5, single 2.0 g, 3-h i.v. infusion, read-out: AUC0–24): 173 ± 25.6 µg·h/mL
- AUC(0-t) ([1]; iv, 2 g, part A cohort 5, single 2.0 g, 3-h i.v. infusion, read-out: AUC0–t): 173 ± 25.6 µg·h/mL
- Vd [1, 9]: 24.3 ± 3.2 L
- AUC(0-inf) [1, 10]: 368 ± 55.9 µg·h/mL
- Cmax [1, 10]: 96200 ± 13600 ng/mL
- clearance [1, 10]: 185 mL/min
- half-life ([1]; iv, 4 g, part A cohort 6, single 4.0 g, 3-h i.v. infusion, mean ± SD, n=6, read-out: t1/2 (converted)): 2.7 ± 0.6 h
- Tmax [1, 10]: 3 h
- AUC(0-t) ([1]; iv, 4 g, part A cohort 6, single 4.0 g, 3-h i.v. infusion, read-out: AUC0–24): 367 ± 55.1 µg·h/mL
- AUC(0-t) ([1]; iv, 4 g, part A cohort 6, single 4.0 g, 3-h i.v. infusion, read-out: AUC0–t): 368 ± 55 µg·h/mL
- Vd [1, 10]: 22.4 ± 3.6 L
- AUC(0-inf) [1, 11]: 732 ± 163 µg·h/mL
- Cmax [1, 11]: 176000 ± 29000 ng/mL
- clearance [1, 11]: 190 mL/min
- half-life ([1]; iv, 8 g, part A cohort 7, single 8.0 g, 3-h i.v. infusion, mean ± SD, n=6, read-out: t1/2 (converted)): 2.8 ± 0.4 h
- Tmax [1, 11]: 3 h
- AUC(0-t) ([1]; iv, 8 g, part A cohort 7, single 8.0 g, 3-h i.v. infusion, read-out: AUC0–24): 730 ± 164 µg·h/mL
- AUC(0-t) ([1]; iv, 8 g, part A cohort 7, single 8.0 g, 3-h i.v. infusion, read-out: AUC0–t): 731 ± 163 µg·h/mL
- Vd [1, 11]: 28.1 ± 9.5 L
- CL renal ([2]; 0.25 g, mean, part B cohort 9, following the final dose on Day 8, 0.250 g): 84.1 mL/min
- CL renal ([2]; 0.25 g, median, part B cohort 9, following the final dose on Day 8, 0.250 g): 73.5 mL/min
- CL renal ([2]; 0.5 g, mean, part B cohort 10, following the final dose on Day 8, 0.500 g): 95.6 mL/min
Structure (SMILES): CC1=C[C@@H]2CN(C(=O)N2OS(=O)(=O)O)[C@@H]1C(N)=O [DUR, Durlobactam]
